From ChEMBL document CHEMBL1201862, “PubChem BioAssay data set” (2004)
Calls of active or inactive are those of the source.

Key:
Format in all cases: functional
[1] = molecular target: T1, Protein RecA (Mycobacterium tuberculosis, UniProt P9WHJ3); assay: Fluorescence Cell-Free Homogeneous Dose Retest to Identify Inhibitors of RecA-Intein Splicing Activity. [Related pubchem assays (depositor defined):AID2097, AID2223, AID489010, AID492950]
T1 sequence (P9WHJ3 whole entry): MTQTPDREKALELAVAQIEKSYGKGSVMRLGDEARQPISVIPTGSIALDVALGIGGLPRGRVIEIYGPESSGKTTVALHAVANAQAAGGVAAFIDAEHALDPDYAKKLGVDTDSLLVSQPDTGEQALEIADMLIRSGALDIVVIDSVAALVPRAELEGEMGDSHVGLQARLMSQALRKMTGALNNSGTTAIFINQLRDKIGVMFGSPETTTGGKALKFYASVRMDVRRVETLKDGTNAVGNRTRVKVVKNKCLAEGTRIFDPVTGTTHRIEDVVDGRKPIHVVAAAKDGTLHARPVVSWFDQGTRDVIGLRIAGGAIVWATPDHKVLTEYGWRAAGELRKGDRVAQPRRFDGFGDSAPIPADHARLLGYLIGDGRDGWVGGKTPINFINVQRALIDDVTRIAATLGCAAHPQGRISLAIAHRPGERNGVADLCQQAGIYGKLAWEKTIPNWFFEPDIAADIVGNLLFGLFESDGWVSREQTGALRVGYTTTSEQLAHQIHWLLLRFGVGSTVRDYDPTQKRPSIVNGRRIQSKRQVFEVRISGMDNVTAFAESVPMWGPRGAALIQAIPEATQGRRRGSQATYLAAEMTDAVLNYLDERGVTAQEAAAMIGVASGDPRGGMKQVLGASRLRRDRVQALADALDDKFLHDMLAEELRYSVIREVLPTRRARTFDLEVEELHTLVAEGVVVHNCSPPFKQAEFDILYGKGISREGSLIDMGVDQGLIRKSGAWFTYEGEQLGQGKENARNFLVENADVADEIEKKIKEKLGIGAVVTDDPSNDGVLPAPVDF

[2] = molecular target: Serine/threonine-protein kinase pim-1 (Homo sapiens, UniProt P11309)
[3] = molecular target: Protein kinase C iota type (Homo sapiens, UniProt P41743);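 note: measured within a kinome-wide kinase panel, PRKCI as panel member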
Protein kinase C iota type, sequence (P41743 whole entry): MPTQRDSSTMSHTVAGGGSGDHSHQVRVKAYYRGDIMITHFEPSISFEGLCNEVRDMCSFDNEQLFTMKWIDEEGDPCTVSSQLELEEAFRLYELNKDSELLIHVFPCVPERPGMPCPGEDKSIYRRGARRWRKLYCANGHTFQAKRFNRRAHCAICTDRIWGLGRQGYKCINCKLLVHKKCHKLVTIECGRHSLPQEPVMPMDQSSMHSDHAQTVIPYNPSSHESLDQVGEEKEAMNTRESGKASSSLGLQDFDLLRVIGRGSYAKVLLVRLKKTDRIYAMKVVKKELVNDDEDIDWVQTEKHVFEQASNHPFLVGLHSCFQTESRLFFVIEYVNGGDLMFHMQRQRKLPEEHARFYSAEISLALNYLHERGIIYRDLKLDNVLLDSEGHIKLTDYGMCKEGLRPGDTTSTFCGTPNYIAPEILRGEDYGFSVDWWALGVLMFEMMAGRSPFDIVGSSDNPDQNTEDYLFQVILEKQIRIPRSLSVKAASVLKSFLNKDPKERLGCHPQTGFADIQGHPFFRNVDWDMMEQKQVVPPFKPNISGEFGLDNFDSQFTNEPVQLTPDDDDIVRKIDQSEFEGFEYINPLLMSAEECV

[4] = molecular target: Cell division cycle 7-related protein kinase (Homo sapiens, UniProt O00311);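 note: value obtained from a kinome-wide kinase panel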
[5] = molecular target: Platelet-derived growth factor receptor alpha (Homo sapiens, UniProt P16234); assay: Navigating the Kinome. Panel member name: PDGFRA
[6] = molecular target: Activin receptor type-1 (Homo sapiens, UniProt Q04771); assay: Navigating the Kinome. Panel member name: ACVR1
Activin receptor type-1, sequence (Q04771 whole entry): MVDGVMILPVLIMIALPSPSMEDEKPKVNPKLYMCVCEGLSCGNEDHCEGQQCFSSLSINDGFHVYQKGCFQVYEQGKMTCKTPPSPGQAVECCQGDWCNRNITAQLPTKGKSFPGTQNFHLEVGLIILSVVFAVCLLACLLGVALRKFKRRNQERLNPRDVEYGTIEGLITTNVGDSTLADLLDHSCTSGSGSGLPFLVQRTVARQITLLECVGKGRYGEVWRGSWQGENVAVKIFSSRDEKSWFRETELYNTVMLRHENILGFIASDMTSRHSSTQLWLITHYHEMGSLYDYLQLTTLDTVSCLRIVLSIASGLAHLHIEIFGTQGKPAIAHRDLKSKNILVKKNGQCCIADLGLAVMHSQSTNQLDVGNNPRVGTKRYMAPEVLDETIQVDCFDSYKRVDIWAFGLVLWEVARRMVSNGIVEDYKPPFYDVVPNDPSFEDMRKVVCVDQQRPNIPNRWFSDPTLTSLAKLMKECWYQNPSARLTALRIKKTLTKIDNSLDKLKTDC

[7] = molecular target: RAC-gamma serine/threonine-protein kinase (Homo sapiens, UniProt Q9Y243)
RAC-gamma serine/threonine-protein kinase, sequence (Q9Y243 whole entry): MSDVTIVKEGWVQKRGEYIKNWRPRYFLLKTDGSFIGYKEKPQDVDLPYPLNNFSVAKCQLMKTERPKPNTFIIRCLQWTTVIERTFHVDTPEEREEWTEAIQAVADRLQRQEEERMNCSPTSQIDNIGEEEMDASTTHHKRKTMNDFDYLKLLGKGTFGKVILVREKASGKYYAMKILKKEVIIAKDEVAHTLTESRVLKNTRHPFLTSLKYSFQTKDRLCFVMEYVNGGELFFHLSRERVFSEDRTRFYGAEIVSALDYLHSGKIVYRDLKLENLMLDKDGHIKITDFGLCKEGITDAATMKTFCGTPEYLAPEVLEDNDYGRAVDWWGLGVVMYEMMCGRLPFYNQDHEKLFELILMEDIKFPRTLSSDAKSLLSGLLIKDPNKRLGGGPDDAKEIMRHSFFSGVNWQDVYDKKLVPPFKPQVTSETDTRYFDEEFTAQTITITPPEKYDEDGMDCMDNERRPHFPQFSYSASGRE

[8] = molecular target: Aurora kinase B (Homo sapiens, UniProt Q96GD4)
Aurora kinase B, sequence (Q96GD4 whole entry): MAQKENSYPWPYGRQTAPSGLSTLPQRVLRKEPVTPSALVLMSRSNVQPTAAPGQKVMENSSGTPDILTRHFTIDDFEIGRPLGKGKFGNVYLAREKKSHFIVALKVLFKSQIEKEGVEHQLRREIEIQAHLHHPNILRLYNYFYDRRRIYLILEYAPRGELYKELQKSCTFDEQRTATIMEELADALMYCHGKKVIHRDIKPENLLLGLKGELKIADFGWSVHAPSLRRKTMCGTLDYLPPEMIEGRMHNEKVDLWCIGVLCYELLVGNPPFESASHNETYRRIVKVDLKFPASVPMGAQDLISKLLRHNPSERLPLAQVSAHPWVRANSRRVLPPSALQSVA

[9] = molecular target: cGMP-dependent protein kinase 1 (Homo sapiens, UniProt Q13976);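 note: value from a kinome panel screen with PRKG1 as the panel member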
cGMP-dependent protein kinase 1, sequence (Q13976 whole entry): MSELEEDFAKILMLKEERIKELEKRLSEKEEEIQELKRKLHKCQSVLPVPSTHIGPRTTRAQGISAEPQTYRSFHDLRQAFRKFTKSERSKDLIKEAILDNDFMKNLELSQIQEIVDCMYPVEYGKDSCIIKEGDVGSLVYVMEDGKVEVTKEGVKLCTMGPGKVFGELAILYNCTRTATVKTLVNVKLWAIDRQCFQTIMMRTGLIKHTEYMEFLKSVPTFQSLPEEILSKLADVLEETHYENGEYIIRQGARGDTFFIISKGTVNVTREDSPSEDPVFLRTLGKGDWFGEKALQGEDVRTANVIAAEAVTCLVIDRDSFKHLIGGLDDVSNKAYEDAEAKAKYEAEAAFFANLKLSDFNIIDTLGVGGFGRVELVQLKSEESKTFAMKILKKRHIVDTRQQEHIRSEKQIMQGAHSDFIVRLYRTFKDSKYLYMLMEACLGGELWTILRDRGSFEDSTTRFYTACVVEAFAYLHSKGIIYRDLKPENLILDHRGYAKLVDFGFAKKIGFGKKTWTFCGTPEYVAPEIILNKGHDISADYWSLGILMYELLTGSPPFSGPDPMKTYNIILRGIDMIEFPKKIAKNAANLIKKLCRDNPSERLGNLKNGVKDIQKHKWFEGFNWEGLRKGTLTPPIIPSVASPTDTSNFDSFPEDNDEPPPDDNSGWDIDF

[10] = molecular target: Mitogen-activated protein kinase kinase kinase 10 (Homo sapiens, UniProt Q02779); assay: Navigating the Kinome. Panel member name: MAP3K10
[11] = molecular target: Interleukin-1 receptor-associated kinase 1 (Homo sapiens, UniProt P51617);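 note: IRAK1 tested as one member of a kinome panel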
[12] = molecular target: ALK tyrosine kinase receptor (Homo sapiens, UniProt Q9UM73);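 note: ALK tested as one member of a kinase panel screen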
ALK tyrosine kinase receptor, sequence (Q9UM73 whole entry): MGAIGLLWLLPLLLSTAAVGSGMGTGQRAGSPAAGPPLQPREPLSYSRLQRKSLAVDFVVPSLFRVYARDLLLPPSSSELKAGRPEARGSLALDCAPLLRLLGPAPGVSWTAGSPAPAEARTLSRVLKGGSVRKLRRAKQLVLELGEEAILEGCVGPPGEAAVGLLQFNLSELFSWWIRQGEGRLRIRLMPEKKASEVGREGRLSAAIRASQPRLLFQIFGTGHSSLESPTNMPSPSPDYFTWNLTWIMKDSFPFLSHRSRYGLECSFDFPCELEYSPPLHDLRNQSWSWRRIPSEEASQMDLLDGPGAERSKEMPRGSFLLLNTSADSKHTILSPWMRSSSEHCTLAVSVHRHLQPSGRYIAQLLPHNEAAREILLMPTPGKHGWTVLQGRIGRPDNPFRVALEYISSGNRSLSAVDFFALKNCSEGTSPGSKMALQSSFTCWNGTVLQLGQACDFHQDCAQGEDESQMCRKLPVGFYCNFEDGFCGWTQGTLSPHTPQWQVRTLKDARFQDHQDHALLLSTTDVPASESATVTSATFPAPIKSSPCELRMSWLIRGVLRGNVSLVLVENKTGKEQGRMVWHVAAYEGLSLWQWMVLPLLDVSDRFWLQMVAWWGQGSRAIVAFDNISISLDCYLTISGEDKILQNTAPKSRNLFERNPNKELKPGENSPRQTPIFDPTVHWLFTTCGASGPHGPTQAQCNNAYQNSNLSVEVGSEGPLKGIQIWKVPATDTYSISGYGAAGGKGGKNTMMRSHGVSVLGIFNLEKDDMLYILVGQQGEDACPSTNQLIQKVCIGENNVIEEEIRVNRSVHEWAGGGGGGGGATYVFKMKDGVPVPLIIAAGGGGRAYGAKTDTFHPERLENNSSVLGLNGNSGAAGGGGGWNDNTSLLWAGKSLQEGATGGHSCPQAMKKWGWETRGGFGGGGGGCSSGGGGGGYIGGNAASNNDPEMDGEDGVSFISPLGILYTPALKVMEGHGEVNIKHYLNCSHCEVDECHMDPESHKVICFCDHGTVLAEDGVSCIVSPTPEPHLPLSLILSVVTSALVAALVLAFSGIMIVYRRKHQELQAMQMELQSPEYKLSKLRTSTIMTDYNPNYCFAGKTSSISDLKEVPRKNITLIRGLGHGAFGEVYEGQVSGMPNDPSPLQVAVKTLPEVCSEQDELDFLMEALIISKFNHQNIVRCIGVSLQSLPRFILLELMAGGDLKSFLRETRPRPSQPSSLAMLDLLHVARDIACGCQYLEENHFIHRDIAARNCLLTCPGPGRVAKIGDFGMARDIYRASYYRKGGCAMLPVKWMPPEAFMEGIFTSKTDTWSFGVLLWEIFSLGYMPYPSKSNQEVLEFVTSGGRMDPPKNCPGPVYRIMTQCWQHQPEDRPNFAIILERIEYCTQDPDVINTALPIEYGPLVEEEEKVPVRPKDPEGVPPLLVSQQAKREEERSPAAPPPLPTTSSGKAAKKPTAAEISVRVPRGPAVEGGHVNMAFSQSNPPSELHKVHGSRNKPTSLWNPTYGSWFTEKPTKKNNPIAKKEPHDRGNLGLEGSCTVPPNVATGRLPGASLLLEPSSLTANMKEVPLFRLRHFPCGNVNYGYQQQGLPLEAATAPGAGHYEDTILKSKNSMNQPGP

[13] = molecular target: Mitogen-activated protein kinase 1 (Homo sapiens, UniProt P28482)
[14] = molecular target: Mitogen-activated protein kinase kinase kinase kinase 2 (Homo sapiens, UniProt Q12851);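 note: measured as one member of a kinome-wide kinase panel, with MAP4K2 as the panel entry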
[15] = molecular target: Serine/threonine-protein kinase PAK 1 (Homo sapiens, UniProt Q13153)
[16] = molecular target: Mast/stem cell growth factor receptor Kit (Homo sapiens, UniProt P10721);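 note: KIT entry within a kinase panel assay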
[17] = molecular target: Ribosomal protein S6 kinase alpha-5 (Homo sapiens, UniProt O75582)
[18] = molecular target: Homeodomain-interacting protein kinase 4 (Homo sapiens, UniProt Q8NE63)
[19] = molecular target: Mitogen-activated protein kinase 14 (Homo sapiens, UniProt Q16539);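 note: part of a kinome-wide panel, MAPK14 entry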
Mitogen-activated protein kinase 14, sequence (Q16539 whole entry): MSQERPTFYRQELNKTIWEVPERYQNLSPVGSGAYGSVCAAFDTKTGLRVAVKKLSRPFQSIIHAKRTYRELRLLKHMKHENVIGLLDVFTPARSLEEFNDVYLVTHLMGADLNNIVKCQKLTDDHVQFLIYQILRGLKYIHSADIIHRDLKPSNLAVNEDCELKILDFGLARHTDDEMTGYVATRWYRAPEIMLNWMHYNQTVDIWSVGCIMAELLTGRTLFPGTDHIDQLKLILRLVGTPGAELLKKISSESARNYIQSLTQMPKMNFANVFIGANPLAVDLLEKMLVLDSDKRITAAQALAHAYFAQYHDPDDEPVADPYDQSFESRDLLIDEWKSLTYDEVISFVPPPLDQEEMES

[20] = molecular target: Ephrin type-A receptor 2 (Homo sapiens, UniProt P29317);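 note: EPHA2 tested as one member of a kinome-wide kinase panel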
[21] = molecular target: Mitogen-activated protein kinase kinase kinase kinase 4 (Homo sapiens, UniProt O95819)
[22] = molecular target: Mitogen-activated protein kinase 10 (Homo sapiens, UniProt P53779); assay: Navigating the Kinome. Panel member name: MAPK10
[23] = molecular target: Tyrosine-protein kinase receptor TYRO3 (Homo sapiens, UniProt Q06418);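 note: TYRO3 value obtained as one member of a kinome-wide profiling panel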
[24] = molecular target: Serine/threonine-protein kinase pim-2 (Homo sapiens, UniProt Q9P1W9);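 note: value comes from a broad kinase panel profiling study in which PIM2 was one of the panel members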
Serine/threonine-protein kinase pim-2, sequence (Q9P1W9 whole entry): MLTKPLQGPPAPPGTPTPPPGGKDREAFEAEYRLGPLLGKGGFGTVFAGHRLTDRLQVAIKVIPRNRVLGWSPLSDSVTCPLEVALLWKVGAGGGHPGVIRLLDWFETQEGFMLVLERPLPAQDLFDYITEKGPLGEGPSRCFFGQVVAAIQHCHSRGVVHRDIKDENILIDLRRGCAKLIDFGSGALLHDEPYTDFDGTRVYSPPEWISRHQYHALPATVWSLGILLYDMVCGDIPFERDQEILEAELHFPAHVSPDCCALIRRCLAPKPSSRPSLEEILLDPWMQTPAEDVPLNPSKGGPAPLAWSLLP

[25] = molecular target: Death-associated protein kinase 3 (Homo sapiens, UniProt O43293);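 note: measured as one member of a kinome-wide profiling panel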
[26] = molecular target: Homeodomain-interacting protein kinase 2 (Homo sapiens, UniProt Q9H2X6);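 note: measured within a kinome-wide kinase profiling panel, HIPK2 being one panel member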
[27] = molecular target: Serine/threonine-protein kinase PAK 4 (Homo sapiens, UniProt O96013);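 note: value obtained within a kinome profiling panel in which PAK4 was one of the panel members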
[28] = molecular target: Testis-specific serine/threonine-protein kinase 1 (Homo sapiens, UniProt Q9BXA7)
[29] = molecular target: Tyrosine-protein kinase SYK (Homo sapiens, UniProt P43405)
[30] = molecular target: Casein kinase II subunit alpha (Homo sapiens, UniProt P68400)
[31] = molecular target: Serine/threonine-protein kinase BRSK1 (Homo sapiens, UniProt Q8TDC3);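 note: measured within a kinome-wide kinase panel, with the target listed as KIAA1811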
[32] = molecular target: Dual specificity tyrosine-phosphorylation-regulated kinase 1B (Homo sapiens, UniProt Q9Y463); assay: Navigating the Kinome. Panel member name: DYRK1B
[33] = molecular target: Serine/threonine-protein kinase D3 (Homo sapiens, UniProt O94806);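 note: determined within a kinase panel screen, with PRKCN as the panel member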
[34] = molecular target: Misshapen-like kinase 1 (Homo sapiens, UniProt Q8N4C8);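 note: kinome panel screen with MINK as the panel member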
[35] = molecular target: Tyrosine-protein kinase Blk (Homo sapiens, UniProt P51451);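 note: obtained as one member of a kinome-wide kinase assay panel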

## CCCn1nc([N+](=O)[O-])c(C(C#N)c2nc3ccccc3s2)c(Cl)c1=O (stereo not given)
[1]
  EC50: 2170 nM (active)

## NCCCn1cc(-c2cc(-c3cc4ccccc4s3)c3[nH]ncc3c2)c2nc(N)ncc21
[2]
  Ki: > 3160 nM (inactive)
[3]
  Ki: 3.16 nM (active)
[4]
  Ki: 12.6 nM (active)
[5]
  Ki: > 2000 nM (inactive)
[6]
  Ki: > 3160 nM (inactive)
[7]
  Ki: 251 nM (active)
[8]
  Ki: > 2000 nM (inactive)
[9]
  Ki: 6.31 nM (active)
[10]
  Ki: 126 nM (active)
[11]
  Ki: 1260 nM (active)
[12]
  Ki: > 3980 nM (inactive)
[13]
  Ki: 5010 nM (active)
[14]
  Ki: > 1580 nM (inactive)
[15]
  Ki: 63.1 nM (active)
[16]
  Ki: > 3160 nM (inactive)
[17]
  Ki: 631 nM (active)
[18]
  Ki: 501 nM (active)
[19]
  Ki: > 3980 nM (inactive)
[20]
  Ki: > 3160 nM (inactive)
[21]
  Ki: > 3160 nM (inactive)
[22]
  Ki: > 3160 nM (inactive)
[23]
  Ki: > 2510 nM (inactive)
[24]
  Ki: 100 nM (active)
[25]
  Ki: 79.4 nM (active)
[26]
  Ki: 631 nM (active)
[27]
  Ki: 2510 nM (active)
[28]
  Ki: 251 nM (active)
[29]
  Ki: 100 nM (active)
[30]
  Ki: 100 nM (active)
[31]
  Ki: 79.4 nM (active)
[32]
  Ki: 631 nM (active)
[33]
  Ki: 398 nM (active)
[34]
  Ki: 100 nM (active)
[35]
  Ki: > 1580 nM (inactive)
